Assay [1] deals with melanoma cells Malme-3M, A375, G361, SK-Mel-2, SK-Mel-5, and SK-Mel-28. Nature of the assay: MTS cell proliferation assay. The class given is cell-based, human. To be noted: 5 μM or 10 μM. The source says:
Another assay for determining the number of viable cells in proliferation or cytotoxicity assays is the MTS assay, a calorimetric method. MTS assay reagents are commercially available (Promega Corp., Madison, Wis.). The reagent contains a tetrazolium compound [3-(4,5-dimethylthiazol-2-yl)-5-(3-carboxymethoxyphenyl)-2-(4-sulfophenyl)-2H-tetrazolium, inner salt; MTS] and an electron coupling reagent (phenazine ethosulfate; PES). PES has enhanced chemical stability, which allows it to be combined with MTS to form a stable solution. The MTS tetrazolium compound (Owen.s reagent) is bioreduced by cells into a colored formazan product that is soluble in tissue culture medium. This conversion may be accomplished by NADPH or NADH produced by dehydrogenase enzymes in metabolically active cells. The quantity of formazan product as measured by the absorbance at 490 nm is directly proportional to the number of living cells in culture. Because the MTS formazan product is soluble in tissue culture medium, this assay requires fewer steps than procedures that use tetrazolium compounds such as MTT. The formazan product of MTT reduction is a crystalline precipitate that requires an additional step in the procedure to dissolve the crystals before recording absorbance readings at 570 nm. […]
For orientation: Tetrazolium assays rely on reduction of a dye to a coloured formazan, in cell work by metabolically active cells.

Assay [2] relates to GLI1, GLI2 and GLI/TAFII31 induced transcription in NSCLC A549 cells. The experiment in a line: 6xGLI BS-luciferase reporter assay (GLI / TAFII31 co-expression). In kind it is cell-based, human. To be noted: for reduction of transcription activity (6xGLI BS-luciferase): 20 μM, 16-20 hours. The method, then: One day before transfection, cells (1×10^5) were plated in 12-well plates with growth medium without antibiotics. When cells reached 80-90% of confluence they were co-transfected using 0.5 μg of each promoter construct in pGL3Basic vector and 0.025 μg pRL-TK Vector (Promega; Madison, Wis.) containing Renilla Luciferase as an internal control for the transformation efficiency. Lipofectamine 2000™ (Invitrogen Life Technologies) was used to mediate transfection for about 6 hours. Then the medium was replaced with fresh medium containing various small molecule compounds at a concentration of 30 μM, and the resulting cells were cultured for an additional 18-24 hours and subjected to luciferase assay. Briefly, cells were lysed in a lysis buffer and Firefly and Renilla Luciferase activities in cells of each well, were measured using Dual-Luciferase Assay System (Promega) and an illuminometer. The measured luciferase activities were normalized to pRL-TK Vector activity and were given relative to the basal activity of empty pGL3-Basic Vector, which was set to unity. The data shown represent mean values (±S.D.). All measurements were performed in triplicate and repeated in at least three independent experiments. The human Wnt-2 promoter-luciferase construct, the human SOCS3 promoter-Luciferase construct and the human Gremlin promoter-luciferase construct were cloned and characterized in the laboratory of Dr. Jablons at the University of California, San Francisco (San Francisco, Calif.; He et al., Biochem Biophy Res Comm, 2003; and unpublished data). The 6GLI-TKO-luciferase construct (containing 6 repeats of consensus GLI DNA binding sequence) was kindly provided by Dr. Matthias Hebrok's laboratory at the University of California, San Francisco (San Francisco, Calif.).
Further, the specificity of the compounds of the present invention in inhibiting GLI activity and to determine whether these compounds block the interaction between GlLI and TAFII31 as described above, was examined. Specifically, in this analysis, an expression construct linking the 6 repeats of GLI-binding sites (6xGLI BS) to a luciferase reporter gene as a surrogate measurement of the GLI-dependent transcription was used to examine the 6xGLI BS-luciferase activity after treatment of NSCLC A549 cells with compound FN1-8. […] This finding again confirmed that both GLI1 and GLI2 specifically bound to the GLI-binding sites and were functionally active in transcription. […] After treatment of the A549 cells for 16-20 hours with 20 μM, FN1-8 both GLI alone and GLI/TAFII31 induced 6xGLI BS-luciferase transcription was reduced.
Background: Reporter assays use an easily measured gene product as a stand-in for the process of interest.

In assay [3] the test system is cytosolic β-catenin in human normal skin fibroblasts (Malme-3). Nature of the assay: Western blot of cytosolic β-catenin. The class given is cell-based. To be noted: 10 μM or 20 μM. The method, then: […] Protein concentrations were measured using Bio-Rad Protein Assay reagent. Whole cell lysate protein (5-20 ug) were boiled for 5 min and separated by 10-20% SDS-PAGE. Proteins were transferred to an Immobilon-P membrane (Millipore Corp., Bedford, Mass.) using semi-dry transfer cell (Bio-Rad; Benicia, Calif.). The membranes were blocked with 5% nonfat milk powder and 0.1% Tween 20 in Tris-buffer saline overnight at 4° C. and then incubated with primary antibody for 1 h at room temperature. Membranes were washed in 5% nonfat milk powder and 0.1% Tween 20 in Tris-buffer saline for three 10-min periods. Horseradish peroxidase-conjugated goat anti-rabbit or donkey anti-mouse antibodies were used as secondary antibodies. Proteins were visualized with chemiluminescence luminol reagents (Santa Cruz Bio-technology). Anti-Dvl-3, and anti-Survivin, antibodies were from Santa Cruz Biotechnology (Santa Cruz, Calif.). Anti-Caspase3 antibody was from Oncogene (Cambridge, Mass.). Anti-β-Actin antibody was from Sigrna-Aldrich Corp. (St. Louis, Mo.). Anti-β-catenin antibody was from Transduction Laboratories (Lexington, Ky.). Anti-Cytochrome c antibody was from BD Biosciences (San Diego, Calif.). For detecting alteration of β-catenin cytosolic extracts were prepared and examined as described previously in the publications from our lab. […]
Background: A western blot detects proteins with antibodies after separation by electrophoresis.

For the compound `O=C(NCCc1ccc(O)cc1)C1C(c2ccccc2)=NN(c2ccccc2)C1c1ccccc1` (stereo not drawn) [FN1-8, N-(2-(4-Hydroxyphenyl)ethyl)-1,3,5-triphenyl-4,5-dihydro-pyrazole-4-carboxyamide], in assay [1], the “cell proliferation (MTS)” value was “significantly inhibited cell proliferation”. Besides, the “GLI protein-TAF-induced transcriptional activation” value in assay [2] (A549 (FIG. 16)) is given as “reduces GLI protein-TAF-induced transcriptional activation”. Moreover, the “reduction of transcription activity (6xGLI BS-luciferase)” value was “about 70%” in assay [2] (GLI1 cotransfected with TAFII31), “about 50%” in assay [2] (GLI2 cotransfected with TAFII31) and “approximately 30%” in assay [2] (GLI alone). Also, the “cytosolic β-catenin level” value in assay [3] was “no noticeable change”.

The values above are taken from US7714014B2, “Targeting GLI proteins in human cancer by small molecules” (The Regents of the University of California, priority 2005, dated 2010).
